Source: patent publication US20090111786A1, “Compounds that Prevent Macrophage Apoptosis and Uses Thereof” (priority 2004, published 2009)

Assays:
[1] = tested on: bone marrow-derived macrophages (BMDMs); experiment: Macrophage apoptosis on M-CSF withdrawal, sub-G1 DNA content by flow cytometry (PI); format: cell-based, mouse; settings: for increase in cells with sub-G1 DNA content (apoptosis-induced DNA fragmentation): BMDMs pre-incubated with agonist, then cultured without M-CSF
[2] = tested on: LPS-dependent gene expression in macrophages; experiment: Microarray analysis of LPS (TLR4)-induced apoptotic gene program; settings: 9cRA alone
Experimental: Microarray analysis: In one embodiment, large numbers of genes were assayed for relative expression levels using one or more of an Affymetrix U74A array and a Codelink Uniset 1 mouse array. Total RNA was isolated and purified using Trizol reagent (Invitrogen Life Technologies, Carlsbad, Calif.) and RNeasy columns (Qiagen, Valencia, Calif.). cRNA was generated from 10 μg total RNA using Superscript (Invitrogen) and the High Yield RNA transcription labeling kit (Enzo Biochem. Inc., Farmingdale, N.Y.). Duplicate samples of fragmented cRNA were hybridized to Affymetrix U74A arrays or Codelink Uniset 1 mouse arrays according to manufacture's instruction. Data was analyzed with Microarray Suite (Affymetrix, Santa Clara, Calif.) and Genespring software (Silicongenetics, Redwood City, Calif.).
An additional series of microarray experiments was performed to evaluate the influence of LXR activation on regulation of the apoptotic program induced by engagement of TLR4 (FIG. 4). Macrophages were incubated with GW3965 or vehicle for 16 h and then treated with LPS for 6 hours.
Macrophages were incubated with the LXR agonist GW3965 (1 μM) or vehicle for 16 h prior to treatment with LPS (100 ng/ml) for 6 h. Total RNA was subjected to microarray analysis using Codelink Mouse Uniset 1 microarrays.

[3] = tested on: WT and LXR−/− macrophages; experiment: Cycloheximide-induced macrophage apoptosis, DNA fragmentation; format: cell-based, mouse; settings: for apoptotic process induced by CHX (DNA fragmentation): preincubation 24 h
macrophages = experiment: Cycloheximide-induced general caspase activity, fluorimetric; format: cell-based, mouse; settings: macrophages treated with CHX 10 μg/ml, 5 h
[4] = tested on: AIM (Apoptosis Inhibitor expressed by Macrophages) mRNA; experiment: AIM mRNA expression by Northern blotting; settings: differentiated macrophages; T1317: at 12 to 24 h of stimulation; EC 10 μM

SMILES: CC1=C(/C=C/C(C)=C\C=C\C(C)=C\C(=O)O)C(C)(C)CCC1 [9cRA, 9-cis retinoic acid]
- effect on the action of the LXR-specific agonists on sub-G1 content ([1]; 9cRA combined with T1317, GW3965 or EC, M-CSF withdrawal): markedly enhanced
- increase in cells with sub-G1 DNA content (apoptosis-induced DNA fragmentation) [1]: little effect
- inhibitory activity on LPS-dependent gene expression [2]: very little inhibitory activity

SMILES: O=C(O)Cc1cccc(OCCCN(Cc2cccc(C(F)(F)F)c2Cl)CC(c2ccccc2)c2ccccc2)c1 [GW3965]
- increase in cells with sub-G1 DNA content (apoptosis-induced DNA fragmentation) [1]: attenuated

SMILES: C[C@@H]1C[C@@H]([C@H](O)CC2CC(=O)NC(=O)C2)C(=O)[C@@H](C)C1 [CHX, cycloheximide]
- DNA fragmentation ([3]; macrophages treated with CHX 10 μg/ml, 6 h): increased
- caspase activation (macrophages): increased

SMILES: O=S(=O)(c1ccccc1)N(CC(F)(F)F)c1ccc(C(O)(C(F)(F)F)C(F)(F)F)cc1 [T1317]
- apoptotic process induced by CHX (DNA fragmentation) ([3]; LXR-deficient macrophages): not
- apoptotic process induced by CHX (DNA fragmentation) ([3]; […]): attenuated
- increase in cells with sub-G1 DNA content (apoptosis-induced DNA fragmentation) [1]: attenuated
- AIM mRNA levels [4]: highly induced

SMILES: C[C@H](CC[C@@H]1OC1(C)C)[C@H]1CC[C@H]2[C@@H]3CC=C4C[C@@H](O)CC[C@]4(C)[C@H]3CC[C@]12C [EC, 24(S),25-epoxycholesterol]
- increase in cells with sub-G1 DNA content (apoptosis-induced DNA fragmentation) [1]: attenuated
- AIM mRNA levels [4]: induced
